In this assay the test system is human umbilical vein endothelial cells (HUVEC). Put plainly: HUVEC proliferation assay. Format: cell-based. Particulars: for inhibition at 0.001 µM / inhibition at 0.01 µM / inhibition at 0.05 µM / inhibition at 0.15 µM: Homo sapiens, HUVEC; for inhibition at 0.001 µM: 1 nM; for inhibition at 0.01 µM: 10 nM; for inhibition at 0.05 µM: 50 nM. The gist of the method: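 Readout was MTT dye reduction (A595) after 72 h of stimulation with VEGF at 6 ng/ml final. Compound, in 0.1% DMSO final, was added 1 h before VEGF to HUVEC starved 24 h in 1% FBS. % inhibition was scaled between VEGF-alone and unstimulated wells; IC50 was fitted from triplicate dose curves.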

The mark [1] stands for this setting: table following Table II (untitled), crude combinatorial library.
Where [2] appears, read: table following Table II (untitled), crude combinatorial library, read-out: % inhibition @ 10 nM.
The mark [3] stands for this setting: Inhibition of HUVEC Proliferation, crude combinatorial urea library, read-out: Inhibition @ 50 nM.
Where [4] appears, read: Table II screening results, crude combinatorial amide library.
Where [5] appears, read: Table II screening results, crude combinatorial amide library, read-out: % inhibition @ 10 nM.
The mark [6] stands for this setting: Table I screening results, 150 nM, crude combinatorial amide library.
[7] abbreviates: crude combinatorial urea library, read-out: Inhibition of HUVEC Proliferation % inhibition @ 10 nM.
The mark [8] stands for this setting: crude combinatorial urea library, read-out: Inhibition of HUVEC Proliferation % inhibition @ 50 nM.
The mark [9] stands for this setting: Inhibition of HUVEC Proliferation, crude combinatorial urea library, read-out: % inhibition @ 50 nM.

SMILES strings stand for the structures. Like-named read-outs stand apart in the source and are kept apart here.

Regarding `COc1cc(Nc2nc(N)c(-c3nc(-c4cc(NC(=O)C5CCCC(OC)C5)ccc4C)no3)s2)cc(OC)c1OC` (centres unmarked), the inhibition at 0.001 µM under setting [1] was -4%. The inhibition at 0.01 µM under setting [2] came to 19%.
Regarding `COc1cccc(C(=O)Nc2cc(-c3noc(-c4sc(NC(=O)NCc5ccc(S(N)(=O)=O)cc5)nc4N)n3)c(F)cc2F)c1`, the inhibition at 0.05 µM under setting [3] was determined as 82%.
As for `CCC(C(=O)Nc1cccc(-c2csc(-c3sc(NC(=O)NC)nc3N)n2)c1)c1ccccc1C` (centres unmarked), the inhibition at 0.001 µM under setting [4] was -8%. The inhibition at 0.01 µM under setting [5] is 9%.
Turning to `COc1cc(Nc2nc(N)c(-c3nc(-c4cccc(NC(=O)C5C=CCC=C5C)c4)cs3)s2)cc(OC)c1OC` (centres unmarked), the inhibition at 0.15 µM under setting [6] turned out to be 14%.
In the case of `COc1cc(Nc2nc(N)c(-c3nc(-c4cc(NC(=O)c5cc(C)[nH]c5C)ccc4C)no3)s2)cc(OC)c1OC`, the inhibition at 0.001 µM under setting [1] is -36%. The inhibition at 0.01 µM under setting [2] is 16%.
For the molecule `COc1cc(Nc2nc(N)c(-c3nc(-c4cccc(NC(=O)/C=C/c5cccc6ccccc56)c4)cs3)s2)cc(OC)c1OC`, under setting [6], the “% inhibition @ 150 nM” value is 0%.
Consider `COc1cccc(C(=O)Nc2cccc(-c3csc(-c4sc(NC(=O)NCCN(C(C)C)C(C)C)nc4N)n3)c2)c1`, for which the inhibition at 0.01 µM under setting [7] was determined as 2%. Under setting [8], the inhibition at 0.05 µM stood at 22%.
Regarding `CNC(=O)Nc1nc(N)c(-c2nc(-c3cccc(NC(=O)c4ccc(C(C)(C)C)o4)c3)cs2)s1`, the inhibition at 0.001 µM under setting [4] is 2%. The inhibition at 0.01 µM under setting [5] worked out at 69%.
Consider `COc1cc(Nc2nc(N)c(-c3nc(-c4cccc(NC(=O)c5ccc(Br)o5)c4)cs3)s2)cc(OC)c1OC` [drawing 929], for which the inhibition at 0.15 µM under setting [6] was found to be 34%.
On to `C/C=C(\C)C(=O)Nc1cccc(-c2csc(-c3sc(NC(=O)NC)nc3N)n2)c1`, for which the inhibition at 0.001 µM under setting [4] worked out at 5%. Under setting [5], the inhibition at 0.01 µM came out at 17%.
For `CNC(=O)Nc1nc(N)c(-c2nc(-c3cccc(NC(=O)C4CCC(=O)CC4)c3)cs2)s1`, in that order: -2% and 12%.
Turning to `COc1cc(Nc2nc(N)c(-c3nc(-c4cc(NC(=O)[C@H]5CCC[C@H]5O)ccc4C)no3)s2)cc(OC)c1OC`, the inhibition at 0.001 µM under setting [1] was determined as 45%. Moreover, the inhibition at 0.01 µM under setting [2] worked out at 9%.
For `COc1cc(Nc2nc(N)c(-c3nc(-c4cccc(NC(=O)c5c[nH]c6ccccc56)c4)cs3)s2)cc(OC)c1OC`, under setting [6], the inhibition at 0.15 µM is 20%.
As to `COc1cc(Nc2nc(N)c(-c3nc(-c4cc(NC(=O)c5cc(=O)cco5)ccc4C)no3)s2)cc(OC)c1OC`, the inhibition at 0.001 µM under setting [1] was 19%. Also, the inhibition at 0.01 µM under setting [2] was determined as 37%.
For the molecule `CCc1ccc(-c2ccc(C(=O)Nc3cccc(-c4csc(-c5sc(Nc6cc(OC)c(OC)c(OC)c6)nc5N)n4)c3)cc2)cc1`, the inhibition at 0.15 µM under setting [6] is -7%.
In the case of `COc1cc(Nc2nc(N)c(-c3nc(-c4cccc(NC(=O)c5cccc6ccccc56)c4)cs3)s2)cc(OC)c1OC`, the inhibition at 0.15 µM under setting [6] was 22%.
As to `C=CCC(=O)Nc1ccc(C)c(-c2noc(-c3sc(Nc4cc(OC)c(OC)c(OC)c4)nc3N)n2)c1`, the inhibition at 0.001 µM under setting [1] stood at 35%. In addition, the inhibition at 0.01 µM under setting [2] was 72%.
As for `CCO/C(C)=C/C(=O)Nc1cccc(-c2csc(-c3sc(NC(=O)NC)nc3N)n2)c1`, the inhibition at 0.001 µM under setting [4] stood at 7%. Moreover, the inhibition at 0.01 µM under setting [5] stood at 47%.
As to `COc1cc(Nc2nc(N)c(-c3nc(-c4cccc(NC(=O)c5ncoc5-c5ccccc5)c4)cs3)s2)cc(OC)c1OC` [drawing 897], the inhibition at 0.15 µM under setting [6] worked out at 64%.
`COc1cc(Nc2nc(N)c(-c3nc(-c4cc(NC(=O)C(C)C)ccc4C)no3)s2)cc(OC)c1OC`: under setting [1], the inhibition at 0.001 µM worked out at 6%. In addition, the inhibition at 0.01 µM under setting [2] was found to be 1%.
For the molecule `CNC(=O)Nc1nc(N)c(-c2nc(-c3cccc(NC(=O)c4cc(F)ccc4C)c3)cs2)s1`, the inhibition at 0.001 µM under setting [4] was -1%. Moreover, the inhibition at 0.01 µM under setting [5] was found to be 78%.
Consider `COc1cccc(C(=O)Nc2cccc(-c3csc(-c4sc(NC(=O)NCCCN5CCCCC5C)nc4N)n3)c2)c1` (centres unmarked), for which the inhibition at 0.01 µM under setting [7] was -18%. In addition, the inhibition at 0.05 µM under setting [8] is 55%.
Consider `COc1cc(Nc2nc(N)c(-c3nc(-c4cc(NC(=O)C(=O)Cc5ccccc5)ccc4C)no3)s2)cc(OC)c1OC`, for which, under setting [1], the inhibition at 0.001 µM is 23%. Also, the inhibition at 0.01 µM under setting [2] amounted to 21%.
Consider `COc1cccc(C(=O)Nc2cc(-c3noc(-c4sc(NC(=O)NC5CC(C)(C)NC(C)(C)C5)nc4N)n3)c(F)cc2F)c1`, for which the inhibition at 0.05 µM under setting [3] was 99%.
The same measure, in the same setting: to `COc1cccc(C(=O)Nc2cc(-c3noc(-c4sc(NC(=O)NCCCN5CCCCC5C)nc4N)n3)c(F)cc2F)c1` (centres unmarked) belongs 96%.
As for `COc1cccc(C(=O)Nc2cc(-c3noc(-c4sc(NC(=O)NCC(C)O)nc4N)n3)c(F)cc2F)c1` (centres unmarked), the inhibition at 0.05 µM under setting [3] came out at 78%.
`COc1cc(Nc2nc(N)c(-c3nc(-c4cc(NC(=O)[C@@H](OC)c5ccccc5)ccc4C)no3)s2)cc(OC)c1OC`: the inhibition at 0.001 µM under setting [1] is -11%. Besides, the inhibition at 0.01 µM under setting [2] worked out at 63%.
Consider `COc1cccc(C(=O)Nc2cccc(-c3csc(-c4sc(NC(=O)NCCCN(CCO)CCO)nc4N)n3)c2)c1`, for which the inhibition at 0.01 µM under setting [7] stood at 2%. Further, the inhibition at 0.05 µM under setting [8] was 65%.
As to `COc1cccc(CC(=O)Nc2cccc(-c3csc(-c4sc(Nc5cc(OC)c(OC)c(OC)c5)nc4N)n3)c2)c1`, the inhibition at 0.15 µM under setting [6] amounted to 12%.
As to `COc1cccc(C(=O)Nc2cc(-c3noc(-c4sc(NC(=O)NCCCC(=O)O)nc4N)n3)c(F)cc2F)c1`, the inhibition at 0.05 µM under setting [3] was 96%.
In the case of `COc1cccc(C(=O)Nc2cccc(-c3csc(-c4sc(NC(=O)N[C@@H](CO)C(N)=O)nc4N)n3)c2)c1`, the inhibition at 0.01 µM under setting [7] was determined as 5%. Also, the inhibition at 0.05 µM under setting [8] is 24%.
Consider `COc1cccc(C(=O)Nc2cc(-c3csc(-c4sc(NC(=O)NCCCN5CCN(C)CC5)nc4N)n3)c(F)cc2F)c1`, for which, under setting [9], the inhibition at 0.05 µM came to 95%.
Still for that read-out and setting: to `COc1cccc(C(=O)Nc2cc(-c3csc(-c4sc(NC(=O)N[C@@H](CO)C(N)=O)nc4N)n3)c(F)cc2F)c1` belongs 69%.
Same read-out and setting: next, `CCN1CC(NC(=O)Nc2nc(N)c(-c3nc(-c4cc(NC(=O)c5cccc(OC)c5)c(F)cc4F)cs3)s2)CN1CC`: 82%.
Regarding `COc1cc(Nc2nc(N)c(-c3nc(-c4cc(NC(=O)[C@H]5CCCN5C(C)=O)ccc4C)no3)s2)cc(OC)c1OC`, the inhibition at 0.001 µM under setting [1] was -44%. Besides, the inhibition at 0.01 µM under setting [2] was -3%.
For `COc1cccc(C(=O)Nc2cccc(-c3csc(-c4sc(NC(=O)NCCCN5CCCC5)nc4N)n3)c2)c1`, under setting [7], the inhibition at 0.01 µM was found to be 1%. In addition, the inhibition at 0.05 µM under setting [8] was 101%.
For `COc1cccc(C(=O)Nc2cccc(-c3csc(-c4sc(NC(=O)NCCc5ccccn5)nc4N)n3)c2)c1`, in that order: -2% and 128%.
For the molecule `C/C=C/C(=O)Nc1cccc(-c2csc(-c3sc(NC(=O)NC)nc3N)n2)c1`, the inhibition at 0.001 µM under setting [4] is -1%. In addition, the inhibition at 0.01 µM under setting [5] was -7%.
With `COc1cc(Nc2nc(N)c(-c3nc(-c4cc(NC(=O)c5cc(C)on5)ccc4C)no3)s2)cc(OC)c1OC`, the inhibition at 0.001 µM under setting [1] was found to be 12%. Also, the inhibition at 0.01 µM under setting [2] amounted to 15%.
For `COc1cc(Nc2nc(N)c(-c3nc(-c4cccc(NC(=O)/C=C/c5ccccc5)c4)cs3)s2)cc(OC)c1OC`, the inhibition at 0.15 µM under setting [6] is 36%.
For `CNC(=O)Nc1nc(N)c(-c2nc(-c3cccc(NC(=O)[C@@H]4C[C@H](C)[C@H](C)[C@@H]4C)c3)cs2)s1`, the inhibition at 0.001 µM under setting [4] is -11%. Under setting [5], the inhibition at 0.01 µM was -21%.

The values above are taken from US6620828B2, “Thiazole compounds and pharmaceutical compositions for inhibiting protein kinases and methods for their use” (Agouron Pharmaceuticals, Inc., priority 1999, dated 2003).
